Measurements from patent US9149038B2, “4-amino-6-(heterocyclic)picolinates and 6-amino-2-(heterocyclic)pyrimidine-4-carboxylates and their use as herbicides” (Dow AgroSciences LLC, priority 2013, dated 2015).
Read-outs that look alike come from different tables or passages of the source.

Tests used:
[1] = tested on: Key Broadleaf Weed and Crop Species; assay: Post-Emergent Test II: postemergent herbicidal activity, visual rating after 14 d (Table 7); format: in vivo; conditions: post-emergence, 336 h; for pest or weed control at 35 g/ha: 35 g ai/ha; for pest or weed control at 70 g/ha: 70 g ai/ha; for pest or weed control at 140 g/ha: 140 g ai/ha
Procedure, shortened: (§1)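 Visual 0-100% injury score (0 no injury, 100 complete kill) at 14 d post-spray, relative to untreated plants. Seedlings at 1st-2nd true leaf stage; track sprayer at 187 L/ha, highest rate plus ½×, ¼×, ⅛×, 1/16× serial dilutions. Subirrigated after treatment.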

[2] = tested on: Key Grass and Sedge Weeds as well as Grass Crops; assay: Post-Emergent Test II: postemergent herbicidal activity, visual rating after 14 d (Table 8); format: in vivo; conditions: post-emergence, 336 h; for pest or weed control at 35 g/ha: 35 g ai/ha; for pest or weed control at 70 g/ha: 70 g ai/ha; for pest or weed control at 140 g/ha: 140 g ai/ha
Procedure, shortened: as §1

[3] = lambsquarters (Chenopodium album), read-out: Visual Growth Reduction (%) 14 Days After Application CHEAL
[4] = oilseed rape, canola (Brassica napus), read-out: Visual Growth Reduction (%) 14 Days After Application BRSNN
[5] = redroot pigweed (Amaranthus retroflexus), read-out: Visual Growth Reduction (%) 14 Days After Application AMARE
[6] = sunflower (Helianthus annuus), read-out: Visual Growth Reduction (%) 14 Days After Application HELAN
[7] = velvetleaf (Abutilon theophrasti), read-out: Visual Growth Reduction (%) 14 Days After Application ABUTH
[8] = wild poinsettia (Euphorbia heterophylla), read-out: Visual Growth Reduction (%) 14 Days After Application EPHHL
[9] = barnyardgrass (Echinochloa crus-galli), read-out: Visual Growth Reduction (%) 14 Days After Application ECHCG
[10] = giant foxtail (Setaria faberi), read-out: Visual Growth Reduction (%) 14 Days After Application SETFA
[11] = rice (Oryza sativa), read-out: Visual Growth Reduction (%) 14 Days After Application ORYSA
[12] = wheat, spring (Triticum aestivum), read-out: Visual Growth Reduction (%) 14 Days After Application TRZAS
[13] = yellow nutsedge (Cyperus esculentus), read-out: Visual Growth Reduction (%) 14 Days After Application CYPES
[14] = maize, corn (Zea mays), read-out: Visual Growth Reduction (%) 14 Days After Application ZEAMX

Compound | pest or weed control at 35 g/ha [1, 3] | pest or weed control at 70 g/ha [1, 3] | pest or weed control at 140 g/ha [1, 3] | pest or weed control at 35 g/ha [1, 4] | pest or weed control at 70 g/ha [1, 4] | pest or weed control at 140 g/ha [1, 4] | pest or weed control at 35 g/ha [1, 5] | pest or weed control at 70 g/ha [1, 5] | pest or weed control at 140 g/ha [1, 5] | pest or weed control at 35 g/ha [1, 6] | pest or weed control at 70 g/ha [1, 6] | pest or weed control at 140 g/ha [1, 6] | pest or weed control at 35 g/ha [1, 7] | pest or weed control at 70 g/ha [1, 7] | pest or weed control at 140 g/ha [1, 7] | pest or weed control at 35 g/ha [1, 8] | pest or weed control at 70 g/ha [1, 8] | pest or weed control at 140 g/ha [1, 8] | pest or weed control at 35 g/ha [2, 9] | pest or weed control at 70 g/ha [2, 9] | other results
Nc1c(F)c(-c2cccc3c2OC(F)(F)O3)nc(C(=O)O)c1Cl [Compound 74] | 85 to 94% | 95 to 100% | 95 to 100% | 75 to 84% | 85 to 94% | 95 to 100% | 95 to 100% | 95 to 100% | 95 to 100% | 75 to 84% | 75 to 84% | 85 to 94% | 0 to 29% | 30 to 44% | 45 to 59% | 0 to 29% | 0 to 29% | 0 to 29% | 0 to 29% | 0 to 29% | pest or weed control at 140 g/ha [2, 9]: 0 to 29%; pest or weed control at 35 g/ha [2, 10]: 0 to 29%; pest or weed control at 70 g/ha [2, 10]: 0 to 29%; pest or weed control at 140 g/ha [2, 10]: 0 to 29%; pest or weed control at 35 g/ha [2, 11]: 0 to 29%; pest or weed control at 70 g/ha [2, 11]: 0 to 29%; pest or weed control at 140 g/ha [2, 11]: 0 to 29%; pest or weed control at 35 g/ha [2, 12]: 0 to 29%; pest or weed control at 70 g/ha [2, 12]: 0 to 29%; pest or weed control at 140 g/ha [2, 12]: 0 to 29%; pest or weed control at 35 g/ha [2, 13]: 0 to 29%; pest or weed control at 70 g/ha [2, 13]: 0 to 29%; pest or weed control at 140 g/ha [2, 13]: 0 to 29%
COC(=O)c1nc(-c2ccc3c(c2)OC(F)(F)O3)c(C)c(N)c1Cl [Compound 49] | 0 to 29% | 30 to 44% | 85 to 94% | 0 to 29% | 0 to 29% | 0 to 29% | 0 to 29% | 0 to 29% | 0 to 29% | 85 to 94% | 85 to 94% | 95 to 100% | 0 to 29% | 0 to 29% | 30 to 44% | 0 to 29% | 0 to 29% | 0 to 29% | 0 to 29% | 0 to 29% | pest or weed control at 140 g/ha [2, 9]: 0 to 29%; pest or weed control at 35 g/ha [2, 10]: 0 to 29%; pest or weed control at 70 g/ha [2, 10]: 0 to 29%; pest or weed control at 140 g/ha [2, 10]: 0 to 29%; pest or weed control at 35 g/ha [2, 14]: 30 to 44%; pest or weed control at 70 g/ha [2, 14]: 60 to 74%; pest or weed control at 140 g/ha [2, 14]: 60 to 74%; pest or weed control at 35 g/ha [2, 11]: 0 to 29%; pest or weed control at 70 g/ha [2, 11]: 0 to 29%; pest or weed control at 140 g/ha [2, 11]: 0 to 29%; pest or weed control at 35 g/ha [2, 12]: 0 to 29%; pest or weed control at 70 g/ha [2, 12]: 30 to 44%; pest or weed control at 140 g/ha [2, 12]: 30 to 44%; pest or weed control at 35 g/ha [2, 13]: 0 to 29%; pest or weed control at 70 g/ha [2, 13]: 0 to 29%; pest or weed control at 140 g/ha [2, 13]: 0 to 29%
